Results published in PubChem BioAssay AID179 (DTP/NCI, 2004).
Activity calls are given as the source filed them.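 How the source made its calls: active means compounds giving half or more protection of infected cells from virus-caused growth loss, again on retest; inactive means the rest.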

Tested on: CEM cells HIV-1 protection, formazan growth assay
Experiment: NCI AIDS Antiviral Assay
Details: for IC50: measured here: growth of uninfected CEM cells
Outline: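 Protection of CEM cells against HIV-1 measured as cell growth via soluble formazan read-out, with five concentrations tested on both infected and uninfected cells; failure to protect may reflect toxicity.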

Compound | EC50 [µM] | IC50 [µM] | outcome
COC(=O)C(C([CH-][N+](=O)[O-])c1ccccc1)[P+](c1ccccc1)(c1ccccc1)c1ccccc1 (centres undefined) | > 200 | 10.7 | 
Fc1ccc(F)c(C2SCc3nc4ccccc4n32)c1 (centres undefined) |  |  | inactive
Cc1c(N2C(=O)/C(=C/c3ccc(N(CCC#N)CCC#N)cc3)N=C2c2ccccc2)c(=O)n(-c2ccccc2)n1C | > 200 | 186 | 
c1ccc(CSc2ccc3nncc(SCc4ccccc4)c3c2)cc1 | > 57.5 | > 57.5 | 
O=[N+]([O-])c1ccc(N=C/C=C/Nc2ccc([N+](=O)[O-])cc2)cc1 | > 200 | 52.5 | 
COc1ccc(/C(C#N)=C/c2cccc(OC)c2OC)cc1 | > 200 | 28.2 | 
O/N=C/[C@H]1COC2(CCCCC2)O1 | > 200 | > 200 | 
CCCCC[C@@H]1CCCC2N=C(CCCCC3OCCO3)CCC21 (some centres undefined) |  |  | inactive
CC(C)(O)C(O)COc1c2c(cc3oc(=O)ccc13)OCO2 (centres undefined) | > 813 | 339 | 
COc1ccc(-n2c(N)c(C#N)c3c(c2=S)CCC3)cc1 | > 316 | > 316 | 
N#C/C(=C\c1cccc(F)c1)C(=O)c1ccccc1 | > 39.8 | > 39.8 | 
Cc1ccc(N/N=c2\c3nc4ccccc4nc2n(-c2ccccc2C)c(=S)n3-c2ccccn2)cc1 | > 17.8 |  | 
COc1ccccc1C1c2cc3c(cc2OC2(OC)COC(=O)C12)OCO3 (centres undefined) | > 200 | 10.2 | 
Cc1ccc(NC(=O)Nc2sc(=S)c3c(c2C#N)CCCC3)c(C)c1 | > 58.9 | > 58.9 | 
NC(CSSCC(NC(=O)c1ccccc1)C(=O)O)C(=O)O (centres undefined) | > 200 | > 200 | 
NCCCCC(=O)c1cccnc1 | > 1000 | 501 | 
O=C1CSC2=NC3=C(COC/C3=C\c3ccc(Br)cc3)C(c3ccc(Br)cc3)N12 (centres undefined) |  |  | inactive
O=c1c2ccccc2n2n1CC(O)C2 (centres undefined) |  |  | inactive
CC(C)(O)[C@@H]1CC[C@@]2(C)CCCC(O)C2(O)C1 (some centres undefined) |  |  | inactive
NC(N)=NS(=O)(=O)c1ccc(Nc2c3ccccc3nc3ccc(C(=O)Nc4ccc(S(N)(=O)=O)cc4)cc23)cc1 | > 200 | > 200 | 
Cc1c(N(Cc2ccccc2)Cc2ccccc2)nc(S(C)(=O)=O)nc1S(C)(=O)=O |  |  | inactive
CO/C(=N\N=C\c1ccc(Cl)cc1Cl)c1ccncc1 | > 21.9 | > 21.9 | 

Compound | EC50 [µM] | IC50 [µM] | outcome
CCSc1c2ccccc2c(-c2nc(F)nc(F)n2)n1CCc1ccccc1 | > 13.2 | > 13.2 | 
O=S(=O)(O)Oc1cc2c(c(OS(=O)(=O)O)c1)C[C@H](OS(=O)(=O)O)[C@@H](c1ccc(OS(=O)(=O)O)c(OS(=O)(=O)O)c1)O2 | 91.2 | 174 | 
O=C(O)CSCC(=O)Nc1ccc2cccc3c2c1CC3 |  |  | inactive
CC(CN(C)C)Sc1nnc(SC(C)CN(C)C)s1 (centres undefined) |  |  | inactive
Cc1ccccc1C1OC1C(=O)c1ccccc1N (centres undefined) | > 200 | 46.8 | 
CCN(CC)c1cccc2c1/C(=N/O)CCCC2 | > 200 | 120 | 
O=C1CCN=C(NC(=O)C(F)(F)F)N1CCc1c[nH]c2ccccc12 | > 200 | > 200 | 
COc1cc(N=Nc2ccccc2)c2nccc(C)c2c1N |  |  | inactive
S=C1NC2(CCCCCC2)NN1c1ccccc1 | > 100 | 30.9 | 
COc1cccc(C2CC(=O)c3cccn32)c1 (centres undefined) |  |  | inactive
COc1ccc(CNc2cnc3cc(N)ccc3n2)cc1 | > 67.6 | > 67.6 | 
CC1(C)Oc2ccc3ccc(=S)oc3c2[C@@H](OC(=O)C23CCC(C)(C(=O)O2)C3(C)C)[C@H]1OC(=O)C12CCC(C)(C(=O)O1)C2(C)C (some centres undefined) | 0.525 | 5.62 | 
Clc1ccc(CSc2ccc3nncc(SCc4ccc(Cl)c(Cl)c4)c3c2)cc1Cl | > 41.7 | 37.2 | 
CCOC(=O)N1CCNCCN(C(=O)OCC)CCNCC1 | > 200 | > 200 | 
CC1(C)CCC(C)(C)C1C(=O)NC(O)C(=O)O (centres undefined) | > 200 | > 200 | 
COC(=O)OCC1C=CC(n2cnc3c(Cl)nc(N)nc32)CC1 (centres undefined) | > 200 | 31.6 | 
COC1(OC)CC2C(=O)N(Cc3ccccc3)C1C(S(=O)(=O)c1ccccc1)C2S(=O)(=O)c1ccccc1 (centres undefined) |  |  | inactive
NC1=NC(N)=N1 | > 2950 | > 2950 | 
CC(=O)/C(=C/c1ccccc1[N+](=O)[O-])C(=O)c1ccccc1 | > 24.5 | 2.09 | 
CC(=O)NC1C(OC(C)C(=O)NC(C)C(=O)NC(CCC(=O)NCCCNc2ccc([N+](=O)[O-])c3[nH]c4ccccc4c(=O)c23)C(N)=O)C(O)C(CO)OC1(C)OCc1ccccc1 (centres undefined) | > 151 | 15.8 | 
CCOC(=O)/C(=C\N1C(=O)/C(=C\C(C)=C\c2ccccc2)SC1=S)C(=O)c1ccccc1 | 11 | 13.5 | 
O=C1CCCC2=C1CC1=C(CCCC1=O)N2c1cccc([N+](=O)[O-])c1 | > 186 | 170 | 

Compound | EC50 [µM] | IC50 [µM] | outcome
Cc1c/c(=N/NC(=O)c2ccncc2)n2nc(N)sc2n1 | > 200 | > 200 | 
O=C(O)C1=NN(c2ccc(S(=O)(=O)O)cc2)C(=O)C1N=Nc1ccc(S(=O)(=O)O)cc1 (centres undefined) |  |  | inactive
O=C(O)CSc1nnc(COc2ccc(Cl)cc2)n1-c1ccccc1 | > 200 | 182 | 
COc1ccc(C2=CSC3=NC(C)(C)CC(C)=NN23)cc1 | > 316 | 170 | 
Clc1ccc(C(Cc2cccc(Cl)c2)c2c(Cl)nc(N3CCNCC3)nc2Cl)cc1 (centres undefined) | > 200 | 17.4 | 
Cc1ccc(/C=C2\CCCCC2=O)cc1 |  |  | inactive
CN(N)c1ncnc2c1cnn2C | > 209 | > 209 | 
CCc1cccc(C)c1NC(=O)CC(=O)NNC(N)=S | > 324 | > 324 | 
COc1ccc(/C=C/C(=O)N[C@@H]2CCN3CCCC23)cc1 (some centres undefined) |  |  | inactive
O=C(O)c1cc(C(c2ccc(O)c(C(=O)O)c2)c2ccc(O)c(C(=O)O)c2)ccc1O | > 151 | 28.8 | 
CC(C)(C)SSCCN | > 200 | > 200 | 
Cc1c(NC(=S)Nc2ccc([N+](=O)[O-])cc2)c(=O)n(-c2ccccc2)n1C | > 200 | > 200 | 
COc1cc(/C=N/N=C(\N)NO)cc(OC)c1OC | > 200 | 105 | 
O=[N+]([O-])c1ccc(/C(Cl)=C/c2ccc(/C=C(\Cl)c3ccc([N+](=O)[O-])cc3[N+](=O)[O-])cc2)c([N+](=O)[O-])c1 | > 1.41 | > 1.41 | 
CC(=O)Nc1ccc2[nH]c(C(=O)N3CC(CCl)c4c3cc([N+](=O)[O-])c3ccccc43)cc2c1 (centres undefined) | > 2 | 1.7 | 
N#CC(c1ccccc1)N(CCc1ccccc1)C(=O)c1ccc(C(=O)N(CCc2ccccc2)C(C#N)c2ccccc2)cc1 (centres undefined) | > 200 | 28.2 | 
Nc1ccc(Cc2c(N)[nH]c(=O)[nH]c2=O)cc1 | > 200 | > 200 | 
C=C1CC[C@@H](O)[C@]2(C)CC[C@@H](C(C)(C)O)[C@@H](OC3OC(CO)C(O)C(O)C3O)C12 (some centres undefined) | > 288 | > 288 | 
CC(=O)Oc1ccc2cc(Oc3ccc(Cl)cc3)c(=O)oc2c1 | > 200 | 83.2 | 
CCOC(CN(C)C(=O)OCC(Cl)(Cl)Cl)OCC | > 22.4 | > 22.4 | 
CCOC(=O)N1CCN(Cc2cc(=O)n3ccc(C)cc3n2)CC1 | > 200 | > 200 | 
N#Cc1c(NC(=S)NC(=O)c2ccccc2)nc2c(c1-c1ccccc1)CCC2 | > 100 | 93.3 | 

Compound | EC50 [µM] | IC50 [µM] | outcome
[N-]=[N+]=Nc1c(Cl)c(Cl)nc2ccccc12 | > 200 | 61.7 | 
CCN1C[C@]2(COC)CCC(OC(=O)c3ccc(OC)cc3)C34[C@@H]5C[C@@H]6C(OC(C)=O)[C@@H]5[C@](OC(C)=O)(C[C@@H]6OC)[C@@H](C(OC)[C@@H]32)[C@H]14 (some centres undefined) |  |  | inactive
CCOC(=O)C(C)c1nc2cc(F)c(F)cc2[nH]c1=O (centres undefined) | > 200 | > 200 | 
Cc1ccc(-c2c3c(n(C4OC(CO)C(O)C(O)C4O)c(=S)c2C#N)CC(C)(C)CC3=O)cc1 (centres undefined) | > 200 | 97.7 | 
Cc1ccc(C2(O)CC(c3ccc([N+](=O)[O-])o3)=NN2C(=O)COc2ccccc2Cl)cc1 (centres undefined) | > 1.66 | > 1.66 | 
C=CC(C)(C)[C@@]12CC3C(=O)N[C@@H](CC(C)C)C(=O)N3[C@@H]1N(C(C)=O)c1ccccc12 (some centres undefined) | > 30.2 | > 30.2 | 
CS(=O)(=O)c1[nH]nc2[nH]c(=O)[nH]c(=O)c12 | > 200 | > 200 | 
Cn1nc(Br)c(=O)n(C(c2ccccc2)c2ccccc2)c1=O | > 69.2 | 22.9 | 
CCOCc1ccccc1C1(O)c2ccccc2Oc2ccccc21 | > 200 | 186 | 
COc1ccccc1NC(=S)N/N=C/c1ccccn1 | > 0.2 | 0.0955 | 
CC12OC(=O)[C@@]3(O)CCC4C(C[C@H]5O[C@]56CC=CC(=O)[C@]46C)C45OC[C@H]6C(=O)O[C@@H]1C[C@@]6(C)[C@H](C4=O)C23O5 (some centres undefined) | > 200 | 0.398 | 
Oc1ccc([Te]CCNCC[Te]c2ccc(O)cc2)cc1 | > 10 | 5.89 | 
O=NNc1ccc2ccccc2n1 | > 200 | > 200 | 
CCOc1ccc(NC(=O)CC2SC(N)=NC2=O)cc1 (centres undefined) | > 447 | > 447 | 
CCOC(=O)NC(Nc1ccc(S(=O)(=O)Nc2ncccn2)cc1)(C(=O)OCC)C(F)(F)F (centres undefined) | > 200 | > 200 | 
O=C(O)c1c[nH]c2c([N+](=O)[O-])cccc2c1=O | > 1070 | 9.12 | inactive
C[N+](C)([O-])CCNc1c2ccccc2nc2cccc([N+](=O)[O-])c12 | > 20 | 0.355 | 
CCC1=CCC23C(=O)C=CC(=O)C2(C1)C(=O)c1cccc(OC)c1C3=O (centres undefined) | > 20 | 1.05 | 
O=C1C(=Cc2ccc([N+](=O)[O-])o2)C(=O)N(CCc2ccccc2)S(=O)(=O)N1CCc1ccccc1 | > 5.25 | > 5.25 | 
CC(C)(CC1=CC(=O)C=CC1=O)Cc1ccccc1 | > 200 | 37.2 | 
C/C(CC1(O)C(=O)Nc2ccccc21)=N\O (centres undefined) | > 200 | > 200 | 
